Reference: PMC12930396, “Positive modulators of N-methyl-D-aspartate receptor: structure–activity relationship study on steroidal C-17 and C-20 oxime ethers” (RSC Advances, 2026)

Experiments:
in vitro [1] = details: pH 7.4
Protocol: The reactions were terminated by the addition of four volumes of ice-cold methanol, mixed vigorously, and left at −20 °C for 1h. After that, the samples were centrifuged and the supernatants were analysed by means of ECHO-MS® System (Sciex, Framingham, MA, USA). Zero time points were prepared by adding ice-cold methanol to the mixture of the compound with cofactors before the addition of microsomes. […] Intrinsic clearance (CLint) was calculated using the following formula: [drawing 4] where V is the incubation volume per milligram of microsomal protein (µL mg^−1) and t1/2 is the microsomal half-life.

[2] = Stability in primary rat hepatocytes
Protocol: Primary rat hepatocytes were isolated from 12-weeks-old male Wistar rats (n = 3) by two-step collagenase liver perfusion. Tribromoethanol was used as an anesthetic agent at a dose of 250 mg kg^−1. […] Flow rate was maintained at 7 mL min^−1, and all solutions were kept at 37 °C. After in situ perfusion, the liver was excised, the liver capsule was opened, and cells were suspended in William's Medium E and filtered through a 70 µm membrane. Dead cells were removed by Percoll centrifugation (Percoll density: 1.06 g mL^−1, 50×g, 10 min, 20 °C) and additional centrifugation in William's Medium E (50×g, 5 min). Cells were subsequently diluted in William's Medium E, and their viability and cell suspension density were determined by Trypan Blue exclusion using a hemocytometer. […] Aliquots (50 µL) of the hepatocyte suspension were added to each test well of a 96-well plate, immediately followed by the addition of a 50 µL aliquot of the test compound or control solutions (final hepatocyte density – 0.5 × 10^6 mL^−1). […] At appropriate time-points, 40 µL aliquots were removed from the wells and placed in 1.1 mL microtubes containing 200 µL of methanol and used for LC-MS/MS analysis.
Elimination constant (kel), half-life (t1/2), and intrinsic clearance (CLint) were determined in plots of ln (percent remaining of parent compound) versus time, using linear regression analysis: k = −slope [drawing 6] [drawing 7]

[3] = Thermodynamic solubility in PBS pH 7.4; type: physicochemical; details: PBS pH 7.4, 20 °C, 24 h
Protocol: The reference samples were prepared as follows: a weight corresponding to 2.5 µmol was dissolved in 250 µL of DMSO, resulting in a concentration of 10 mM stock solution. Each calibration level standard was prepared by diluting the stock solution in a mixture of PBS and acetonitrile (50 : 50 v/v). The samples for testing were prepared as follows: the volume of 1000 µL of PBS was added to the testing tube containing a weight of sample corresponding to 0.4 mM. The mixture was shaken at 1000 rpm at 20 °C for 24 h. The mixture was then filtered using a syringe polypropylene 0.45 µm filter. Samples and calibration standards are prepared using an automated system of a robotic arm (PAL-RTC, Switzerland). Then, the sample was analysed on chromatographic system (Vanquish UHPLC, Thermo Fisher Scientific, Germany) connected to the diode array detector and consequently to the charged aerosol detector (both Vanquish, Thermo Fisher Scientific, Germany), Thermo Scientific Accucore C8 (100 × 3 mm; 2.6 µm) column, using gradient elution with acetonitrile/methanol/5 mM formate buffer (pH = 3.00); flow: 1.0 cm^3 min^−1; column temperature: 40 °C; CAD temperature: 30 °C; sample volume: 5 mm^3.

in vitro [4] = details: pH 7.4; remark: listed apart in the source
Protocol: Permeability was quantified using permeability coefficients (Pe) and mass retention, the latter representing the proportion of compound retained in the membrane.
Permeation experiments were conducted in polystyrene 96-well filter plates with PVDF membrane pre-coated with structured layers of phospholipids (Corning Gentest™) according to the manufacturer's instructions. Briefly, the plate was warmed to room temperature, and meanwhile, the solutions of the compounds were diluted from 10 mM DMSO stocks to TRIS–HCl buffer pH 7.4 to reach a 100 µM final concentration. The DMSO concentration in the samples was 1%. Then, 300 µL of these solutions were transferred into the donor (receiver) plate wells, and 200 µL of the (TRIS) buffer was added to the acceptor (filter) plate wells. The filter plate and receiver plate were assembled and incubated for 5 h on an orbital shaker (300 rpm). After this, the concentration of the tested substances in both the donor and acceptor compartments was determined with use of LC/MS. Liquid chromatography was performed using an ExionLC AD pump and autosampler from Sciex (Framingham, MA, USA). […] The mobile phase flow rate was 300 µL min^−1. The column Synergi Fusion-RP from Phenomenex (Torrance, CA, USA) was used and was kept at 40 °C during the analysis.

CCON=C(C)C1CCC2C3CC=C4CC(OC(=O)CCCC(=O)O)CCC4(C)C3CCC12C (stereo not drawn) [Compound 12, 20-Oxo-pregn-5-en-3β-yl hemiglutarate O-ethyloxime]
Metabolic stability in rat liver microsomes (in vitro [1]; 1 h, 10 µM): no detectable metabolism after 60 min
half-life at 10 µM (in vitro [1]; rat, microsomes): > 1 h
Stability in primary rat hepatocytes Clint ([2]; 3 µM, 0.5 × 10^6 cells mL^−1): 19.1 µL/min/mg
half-life at 3 µM ([2]; male, Wistar, rat, hepatocytes): 1.21 h
Metabolic stability in rat hepatocytes ([2]; rat, hepatocytes): moderate metabolic stability
Solubility PBS, pH 7.4 (thermodynamic) [3]: 361 ± 41 µM
solubility thermodynamic at 24 h ([3]; PBS, 20 °C, pH 7.4, aqueous buffer, thermodynamic from solid, read-out: Solubility PBS, pH 7.4 (thermodynamic)): > 350 µM
PAMPA permeability Retention (mass retention) (in vitro [4]; 5 h, 100 µM): 97%
Papp at 5 h, 100 µM (in vitro [4]; PAMPA): 3.89 ×10⁻⁶ cm/s
